Laboratory results as given in patent US20240358829A1, “Lymphocyte Population and Methods for Producing Same” (AVM Biotechnology, LLC, priority 2021, published 2024).
Several values for one entry are separate records, joined by “and”; a condition that tells them apart may be missing. Identical values can stand only once. Entries after “also recorded” stand apart in the source; their conditions may differ. Like-named read-outs stand apart in the source and are kept apart here.

Experiments:
[1] = tested on: lymphocytes and myeloid cells; assay: Humanized mice experiments LYDEP 43 and 45, lymphoid versus myeloid cells (FSC vs SSC); assay type: in vivo, mouse
Protocol: (§1) Female huNOG-EXL mice (n=6) were obtained from Taconic Bioscience (Germantown, NY). Female huCD34-NCG mice (n=8) were obtained from Charles River (Wilmington, MA). Mice from both facilities were acclimated to laboratory conditions for at least 5-6 days.
(§2) After first (03/01/2021) and second dose 1 week later (03/08/2021), when mice reached predetermined time point, they were bled up to 70 μL of blood/mouse via cheek puncture. The blood was analyzed via flow cytometry. After third dose 28 days after the previous dose (on Apr. 5, 2021), when mice reached the study time point, they were euthanized under standard operating procedure summarized here: Mice were anesthetized with isoflurane gas.
(§3) All flow cytometry was performed in house. Blood, spleen, thymus, and bone marrow were processed via standard staining protocol for flow cytometry. MACSQUANT 16 was used for flow cytometry. Antibody panels slightly varied between first, second and third dose. Markers in the flow panel after first dose analysis included Live/Dead, hCD45, mCD45, hCD56, hTCRgd, hCD3, hCD8, hCD16, hCD19, hCD14. Markers in the flow panel after second dose included all the above, plus hTCRab and hiTCR. In the blood analysis after second dose, 7AAD, CD14 and CD19 were included together in a dump channel. […] For the third dose panel design, when full sac was performed, all markers mentioned above were assigned unique channels to avoid overlap, but TCRab was not included in the final panel due to open channel limitations.
(§4) For cheek bleeds, 70 ul of blood was collected in EDTA coated microtainer and proceeded for immunostaining. […] Blood was stained for live dead marker for 10 min at Room temperature and then for the surface antibodies mentioned above for 20 minutes at room temperature in dark. RBCs were lysed with BD FACS lysing buffer and washed with DPBS and resuspended in 300 ul DBPS. 250 ul of sample was run on MACSquant 16 flow cytometer.

[2] = tested on: AVM-NKT cells (CD3highCD49b+); assay type: in vivo, mouse
Source text: Mice were anesthetized with isoflurane gas.

[3] = tested on: R/R NHL; assay: AVM0703 R/R NHL clinical trial, clinical and PET/CT response, survival; assay type: in vivo, human
[4] = Compassionate use patients treated with AVM0703; assay type: in vivo, human
[5] = tested on: hCD45+CD56+γδTCR+invTCR+ cells; assay: Humanized mice experiments LYDEP 43 and 45, flow cytometry of blood and bone marrow; assay type: in vivo, mouse
Protocol: as §1, §2
Spleen, Thymus, femurs, and sternum were collected for all mice. Spleen and thymus were processed into single cell suspension for analysis via flow cytometry. Bones were cleaned of muscle using gauze soaked with 70% ethanol and processed for bone marrow to analyze via flow cytometry. Pancreas and colon dissection were performed according to video and instructional JoVE files. The feces were expelled via administering ice-cold PBS with a 22-gauge gavage tube from colon. Other organs like small intestines, cecum, kidneys, lungs, and liver were also collected. All organ weights were recorded after removing excess liquid from the exterior. Soft organs were first fixed in 4% PFA and then transferred to 70% ethanol 24 hrs later and stored at 4° C. Bones were stored directly in 70% ethanol at 4° C. Blood was processed for flow cytometry analysis, and serum collection.
as §3, §4

[6] = tested on: A20 B cell lymphoma
Protocol: FIG. 10B. […] Mice were inoculated with A20 lymphoma 2×10^6 cells in 100 μL of PBS mixed with 100 μL of chilled Matrigel into their flank. Three, 24 and 48 hours later mice were euthanized and tumors, blood, bone marrow and thymus were taken and made into single cell suspensions for flow cytometry detection of live A20 cells.

[7] = mouse M88, after a first dose (32 mg/kg)
[8] = patient 108-001, after the second 9 mg/kg infusion
[9] = CR (Charles River) humanized mice, AVM0703 72 hrs
[10] = Tac (Taconic) humanized mice, AVM0703 72 hrs
[11] = blood, mouse 10 Taconic NOG-EXL, FIG. 24

Structure (SMILES): C[C@@H]1C[C@H]2[C@@H]3CCC4=CC(=O)C=C[C@]4(C)[C@@]3(F)[C@@H](O)C[C@]2(C)[C@@]1(O)C(=O)COP(=O)(O)O [AVM0703, dexamethasone sodium phosphate]
- % of total mouse WBCs that were lymphoid cells, range ([1]; AVM0703 treated humanized mice): 2%-20.4%
- % of total mouse WBCs that were lymphoid cells, average ([1]; AVM0703 treated humanized mice (Placebo 12.7%)): 10.62%
- myeloid cell production ([1]; humanized mice that largely lack myeloid compartments): induced myeloid cell production
- human lymphocytes, % of total human WBCs ([1]; mouse M01, after a first dose): 67%
- mouse lymphocytes, % of total WBCs ([1]; mouse M01, after a first dose): 6.7%
- total lymphocytes, % of total WBCs ([1]; mouse M01, after a first dose): 35%
- human lymphocytes, % of total human WBCs ([1]; mouse M03, after a first dose): 47%
- mouse lymphocytes, % of total WBCs ([1]; mouse M03, after a first dose): 23.7%
- total lymphocytes, % of total WBCs ([1]; mouse M03, after a first dose): 40%
- human lymphocytes, % of total human WBCs ([1]; mouse M05, after a first dose): 50.1%
- mouse lymphocytes, % of total WBCs ([1]; mouse M05, after a first dose): 2.0%
- total lymphocytes, % of total WBCs ([1]; mouse M05, after a first dose): 20.9%
- human lymphocytes, % of total human WBCs ([1]; mouse M07, after a first dose): 58.2%
- mouse lymphocytes, % of total WBCs ([1]; mouse M07, after a first dose): 20.4%
- total lymphocytes, % of total WBCs ([1]; mouse M07, after a first dose): 41.9%
- human lymphocytes, % of total human WBCs ([1]; mouse M10, after a first dose): 37.5%
- mouse lymphocytes, % of total WBCs ([1]; mouse M10, after a first dose): 5.2%
- total lymphocytes, % of total WBCs ([1]; mouse M10, after a first dose): 28.1%
- human lymphocytes, % of total human WBCs [1, 7]: 58%
- mouse lymphocytes, % of total WBCs [1, 7]: 5.7%
- total lymphocytes, % of total WBCs [1, 7]: 32%
- location of induced AVM-NKT cells ([2]; naïve male Balb/c mice, 48 hours after doses about 29 mg/kg and higher (given as DP)): Induced in Bone Marrow and Fat Tissue
- location of induced AVM-NKT cells ([2]; naïve male C57Bl/6 mice): in blood
- Presence of AVM-NKT cells, 48 hrs spleen ([2]; naïve mice): positive
- Survival from 1st AVM0703 (months) ([3]; patient 101-001, B-ALL, 6 mg/kg X1): 4.8 months
- Survival from 1st AVM0703 (months) ([3]; patient 103-002, PTCL, 6 mg/kg X1): 7 months
- Survival from 1st AVM0703 (months) ([3]; patient 103-004, T-ALL, 6 mg/kg X1): 2.7 months
- Survival from 1st AVM0703 (months) ([3]; patient 103-005, MCL, 9 mg/kg X1): 8.3 months
- Survival from 1st AVM0703 (months) ([3]; patient 103-006, DLBCL, 9 mg/kg X1, ongoing): >12.6 months
- Survival from 1st AVM0703 (months) ([3]; patient 103-007, MCL, 12 mg/kg X1, ongoing): >7.6 months
- Survival from 1st AVM0703 (months) ([3]; patient 103-008, DLBCL, 18 mg/kg X1, ongoing): >2.1 months
- clinical response ([3]; patient 108-001, 9 mg/kg, day 3 after 1st infusion): restoration of vision
- Survival from 1st AVM0703 (months) ([3]; patient 108-001, CNS B-ALL, 9 mg/kg X3, ongoing): >11.8 months
- CNS solid tumor [3, 8]: not evident
- reduction of CSF blasts [3, 8]: 40%
- response to the third infusion ([3]; patient 108-001, third 9 mg/kg infusion): loss of response
- Survival from 1st AVM0703 (months) ([3]; patient 108-002, PTCL, 18 mg/kg X1, ongoing): >10.3 months
- central Lugano 28 Day ([3]; patient 108-002, PTCL, 18 mg/kg, monotherapy): PR with SD
- Survival from 1st AVM0703 (months) ([3]; patient 108-003, AITCL, 12 mg/kg X2, ongoing): >10.2 months
- objective beneficial response (PET/CT, clinical chemistries, CBCs or clinical symptoms) ([3]; patient 108-004, 12 mg/kg): did not have any objective clinical beneficial response; also recorded: did not have an objective beneficial response; also recorded: no response to treatment
- Survival from 1st AVM0703 (months) ([3]; patient 108-004, DLBCL, 12 mg/kg X1, ongoing): >8 months
- time to immune infiltrate (skin turning red over the tumor area) ([4]; compassionate use patient with CNS squamous cell carcinoma, after starting an 18 mg/kg infusion): ≤ 30 min
- neutrophil production ([4]; compassionate use patient without neutrophils for 6 years): began making healthy active neutrophils
- hCD45+(CD56+gdTCR+ inTCR+) [5, 9]: 4.4% and 1.8% and 2.3% and 3.5%
- hCD45+(CD56+gdTCR+) [5, 9]: 4.7% and 6.3% and 1.1% and 1.6%
- hCD45+(CD56+gdTCR+) ([5]; CR (Charles River) humanized mice, AVM0703 96 hrs): 1.1% and 0.4% and 4.4% and 1.4%
- hCD45+(CD56+gdTCR+ inTCR+) [5, 10]: 0.7%
- hCD45+(CD56+gdTCR+) [5, 10]: 10.5% and 3.4%
- hCD45+(CD56+gdTCR+ inTCR+) ([5]; Tac (Taconic) humanized mice, AVM0703 96 hrs): 22.6% and 41.9%
- % of hCD45+CD56+gdTCR+ cells expressing invariant TCR ([5]; blood, CRL-NCG humanized mice, >18 mg/kg HED): More than 97%
- bi-specific immune cell mobilization, % of hCD45+ cells ([5]; blood, humanized mice, >18 mg/kg HED): 2-12%
- % of hCD45+ dim CD56+ gdTCR+ cells positive for CD8 and for CD16 [5, 11]: More than 80%
- CD56+ TCRγδ+ cells, % of hCD45+ cells [5, 11]: 12%
- bi-specific immune cells, % of hCD45+ cells ([5]; blood, mouse M1, CRL-NCG, >18 mg/kg HED): 3.35%
- bi-specific immune cells, % of hCD45+ cells ([5]; blood, mouse M3, CRL-NCG, >18 mg/kg HED): 4.13%
- bi-specific immune cells, % of hCD45+ cells ([5]; blood, mouse M5, CRL-NCG, >18 mg/kg HED): 5.14%
- bi-specific immune cells, % of hCD45+ cells ([5]; blood, mouse M7, CRL-NCG, >18 mg/kg HED): 2.37%
- % of human CD45+CD56+ cells bispecific for TCRγδ and invariant TCR and CD16 positive ([5]; bone marrow, 48-60 hours after a third repeat dose of 32 mg/kg HED): More than 60%
- expression and mobilization of human CD56+γδTCR+invTCR+ immune cells ([5]; both vendors, all 6 umbilical cord blood donors, 32 mg/kg DP oral): induced the expression and mobilization
- % of bispecific γδTCR+invTCR+ bone marrow cells that are CD16+ ([5]; humanized mice, >18 mg/kg HED): Around 90%
- bi-specific immune cells in bone marrow, % of hCD45+ cells ([5]; humanized mice, >18 mg/kg HED): 0.3-8.5%
- time of maximal ablation of A20 lymphoma implanted in the flank ([6]; 18 mg/kg HED): ~3 h
- Presence of AVM-NKT cells, 48 hrs blood ([6]; A20 model): negative
- growth of the A20 B cell lymphoma ([6]; HED 18.1 mg/kg PO, repeat dosing, vs placebo): significantly delays growth
- location of AVM-NKT cells ([6]; male tumor bearing Balb/c mice): in tumors
- tumor necrosis ([6]; study A20-3, dose response curve, 18&26 mg/kg, doses on days 10, 17, 25, 32, 39): 18&26 mg/kg 50-80% necrotic
